Reference: patent US20140081012A1, “NANOPARTICLE, LIPOSOMES, POLYMERS, AGENTS AND PROTEINS MODIFIED WITH REVERSIBLE LINKERS” (THE UNIVERSITY OF NORTH CAROLINA AT CHAPEL HILL, priority 2011, published 2014)

Columns and labels:
[1] = Regeneration of tyramine after disulfide cleavage with DTT (GC-MS); type: physicochemical; conditions: 50 mM DTT in PBS
Method: Two tyramine molecules were reacted with DIC in isopropanol, which completely simulates the cross-linking conditions for protein-based particles (FIG. 26). The commercially available disulfide crosslinker DSP was used as a control in this study. The dimer products were denoted as tyramine-DIC and tyramine-DSP, respectively. Both compounds were treated with 50 mM of dithiothreitol (DTT) in phosphate buffer saline (PBS) to cleave the disulfide bond. […] In addition, ^1H-NMR and high-resolution mass spectrometry confirmed the structure of tyramine recovered after DTT treatment of tyram tyramine-DIC. (SI) Therefore, all the aforementioned results support the successful design of the novel DIC crosslinker.
Tyramine (0.24 g, 1.75 mmol) was added to a solution of DIC (0.12 g, 0.35 mmol) in isopropanol (15 mL). The reaction mixture was stirred for 24 h at 40° C. The mixture was concentrated and purified by column chromatography (EtOAc) to give tyramine-DIC ([…]) as light yellow solid. Tyramine (0.24 g, 1.75 mmol) was added to a solution of DSP (0.14 g, 0.35 mmol) in DMF (4 mL). The reaction mixture was stirred for 24 h at 40° C. […] The supernatants from the solutions were collected and analyzed by gas chromatography-mass spectrometry (Alilent Technologies 5975 series MSD, 7820A GC system) and untreated tyramine was used as standard.

[2] = system: anti-BSA antibody (sandwich ELISA); test: BSA ELISA characterization; type: binding; conditions: several concentrations over the sampling range
Method: Several concentrations were compared over the sampling range of the assays (FIG. 30). […] ELISA relies upon protein-protein interactions, thus providing insight into the preservation of the protein's binding motifs.
The solution was then dialyzed against water for 2 h to remove GSH. […] Absorbance was measured with a SpectraMax M5 plate reader (Molecular Devices) at 450 nm.

| regeneration of tyramine after cleavage of the disulfide bond [1] | Compound | absorbance in BSA ELISA compared with native albumin [2] |
| --- | --- | --- |
| No peak of tyramine was observed | O=C(CCSSCCC(=O)NCCc1ccc(O)cc1)NCCc1ccc(O)cc1 [tyramine-DSP] |  |
|  | albumin dissolved from the cross-linked particles: BSA released from DIC-cross-linked PRINT BSA particles in PBS with 5 mM glutathione | very similar absorbance |
|  | denatured free protein: heat denatured BSA | significantly less total absorbance |
